Structures are written as SMILES.

For the first assay, the system named is NCI-H1734. Description: relative viability (nuclei count vs DMSO), 5 days (fraction); higher = more cells survive. To be noted: first compound 6.325 µM. The procedure, abridged: (§1)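 Values are medians from duplicate plates. Each reflects relative viability, defined as the nuclei count of treated wells over that of vehicle wells. Lung cancer cell lines in 1536-well plates were pin-tool dosed one day after seeding with one drug alone or with a fixed anchor-drug dose plus five library-drug doses (not always all listed) in √10 steps, then fixed, stained and imaged at 4× after 5 days.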
Turning to `COCC1(CO)C(=O)C2CCN1CC2` (stereo not given) [PRIMA-1MET] + CCNC(=O)c1noc(-c2cc(C(C)C)c(O)cc2O)c1-c1ccc(CN2CCOCC2)cc1 [Luminespib] (partner 0.01 µM), the relative viability was found to be 0.172.

`COCC1(CO)C(=O)C2CCN1CC2` (stereo not given) [PRIMA-1MET] + CC(=O)c1c(C)c2cnc(Nc3ccc(N4CCNCC4)cn3)nc2n(C2CCCC2)c1=O [Palbociclib] (partner 0.5 µM) came in with a relative viability of 0.345.

`COCC1(CO)C(=O)C2CCN1CC2` (stereo not given) [PRIMA-1MET] + Cc1nc(Nc2ncc(C(=O)Nc3c(C)cccc3Cl)s2)cc(N2CCN(CCO)CC2)n1 [Dasatinib] (partner 0.075 µM) returned a relative viability of 0.384.

The assay is the same for the next values; noted with them: first compound 20 µM.
Turning to `COCC1(CO)C(=O)C2CCN1CC2` (stereo not given) [PRIMA-1MET] + CS(=O)(=O)N1CCN(Cc2cc3nc(-c4cccc5[nH]ncc45)nc(N4CCOCC4)c3s2)CC1 [Pictilisib] (partner 1 µM), the relative viability is 0.0877.

For the molecule `COCC1(CO)C(=O)C2CCN1CC2` (stereo not given) [PRIMA-1MET] + CCNC(=O)c1noc(-c2cc(C(C)C)c(O)cc2O)c1-c1ccc(CN2CCOCC2)cc1 [Luminespib] (partner 0.01 µM), the relative viability is 0.0435.

As for `COCC1(CO)C(=O)C2CCN1CC2` (stereo not given) [PRIMA-1MET] + CC(=O)c1c(C)c2cnc(Nc3ccc(N4CCNCC4)cn3)nc2n(C2CCCC2)c1=O [Palbociclib] (partner 0.5 µM), the relative viability turned out to be 0.053.

Turning to `COCC1(CO)C(=O)C2CCN1CC2` (stereo not given) [PRIMA-1MET] + Cc1nc(Nc2ncc(C(=O)Nc3c(C)cccc3Cl)s2)cc(N2CCN(CCO)CC2)n1 [Dasatinib] (partner 0.075 µM), the relative viability stood at 0.0495.

For a further assay, the system named is HCC-78. The assay is described as above. To be noted: first compound 0.2 µM. The procedure, abridged:
as §1
Turning to `COCC1(CO)C(=O)C2CCN1CC2` (stereo not given) [PRIMA-1MET] + CS(=O)(=O)N1CCN(Cc2cc3nc(-c4cccc5[nH]ncc45)nc(N4CCOCC4)c3s2)CC1 [Pictilisib] (partner 1 µM), the relative viability was 0.226.

In the case of `COCC1(CO)C(=O)C2CCN1CC2` (stereo not given) [PRIMA-1MET] + CC(=O)c1c(C)c2cnc(Nc3ccc(N4CCNCC4)cn3)nc2n(C2CCCC2)c1=O [Palbociclib] (partner 0.5 µM), the relative viability worked out at 0.449.

Turning to `COCC1(CO)C(=O)C2CCN1CC2` (stereo not given) [PRIMA-1MET] + Cc1nc(Nc2ncc(C(=O)Nc3c(C)cccc3Cl)s2)cc(N2CCN(CCO)CC2)n1 [Dasatinib] (partner 0.075 µM), the relative viability came to 0.427.

The assay is the same for the next values; noted with them: first compound 0.6325 µM.
As to `COCC1(CO)C(=O)C2CCN1CC2` (stereo not given) [PRIMA-1MET] + CS(=O)(=O)N1CCN(Cc2cc3nc(-c4cccc5[nH]ncc45)nc(N4CCOCC4)c3s2)CC1 [Pictilisib] (partner 1 µM), the relative viability is 0.222.

Molecule `COCC1(CO)C(=O)C2CCN1CC2` (stereo not given) [PRIMA-1MET] + CC(=O)c1c(C)c2cnc(Nc3ccc(N4CCNCC4)cn3)nc2n(C2CCCC2)c1=O [Palbociclib] (partner 0.5 µM) had a relative viability of 0.507.

On to `COCC1(CO)C(=O)C2CCN1CC2` (stereo not given) [PRIMA-1MET] + Cc1nc(Nc2ncc(C(=O)Nc3c(C)cccc3Cl)s2)cc(N2CCN(CCO)CC2)n1 [Dasatinib] (partner 0.075 µM), for which the relative viability stood at 0.331.

The assay is the same for the next values; noted with them: first compound 2 µM.
Regarding `COCC1(CO)C(=O)C2CCN1CC2` (stereo not given) [PRIMA-1MET] + CC(=O)c1c(C)c2cnc(Nc3ccc(N4CCNCC4)cn3)nc2n(C2CCCC2)c1=O [Palbociclib] (partner 0.5 µM), the relative viability was found to be 0.397.

The assay is the same for the next values; noted with them: first compound 6.325 µM.
For the molecule `COCC1(CO)C(=O)C2CCN1CC2` (stereo not given) [PRIMA-1MET] + CS(=O)(=O)N1CCN(Cc2cc3nc(-c4cccc5[nH]ncc45)nc(N4CCOCC4)c3s2)CC1 [Pictilisib] (partner 1 µM), the relative viability was 0.138.

Regarding `COCC1(CO)C(=O)C2CCN1CC2` (stereo not given) [PRIMA-1MET] + CC(=O)c1c(C)c2cnc(Nc3ccc(N4CCNCC4)cn3)nc2n(C2CCCC2)c1=O [Palbociclib] (partner 0.5 µM), the relative viability turned out to be 0.446.

`COCC1(CO)C(=O)C2CCN1CC2` (stereo not given) [PRIMA-1MET] + Cc1nc(Nc2ncc(C(=O)Nc3c(C)cccc3Cl)s2)cc(N2CCN(CCO)CC2)n1 [Dasatinib] (partner 0.075 µM) returned a relative viability of 0.442.

Staying with this assay, now noted: first compound 20 µM.
Turning to `COCC1(CO)C(=O)C2CCN1CC2` (stereo not given) [PRIMA-1MET] + CS(=O)(=O)N1CCN(Cc2cc3nc(-c4cccc5[nH]ncc45)nc(N4CCOCC4)c3s2)CC1 [Pictilisib] (partner 1 µM), the relative viability stood at 0.0597.

Regarding `COCC1(CO)C(=O)C2CCN1CC2` (stereo not given) [PRIMA-1MET] + CC(=O)c1c(C)c2cnc(Nc3ccc(N4CCNCC4)cn3)nc2n(C2CCCC2)c1=O [Palbociclib] (partner 0.5 µM), the relative viability is 0.427.

As to `COCC1(CO)C(=O)C2CCN1CC2` (stereo not given) [PRIMA-1MET] + Cc1nc(Nc2ncc(C(=O)Nc3c(C)cccc3Cl)s2)cc(N2CCN(CCO)CC2)n1 [Dasatinib] (partner 0.075 µM), the relative viability amounted to 0.335.

The test system of another assay is NCI-H650. The description is as above. To be noted: first compound 0.2 µM. An outline of the steps: as §1
The molecule `COCC1(CO)C(=O)C2CCN1CC2` (stereo not given) [PRIMA-1MET] + CS(=O)(=O)N1CCN(Cc2cc3nc(-c4cccc5[nH]ncc45)nc(N4CCOCC4)c3s2)CC1 [Pictilisib] (partner 1 µM) registered a relative viability of 1.14.

For the molecule `COCC1(CO)C(=O)C2CCN1CC2` (stereo not given) [PRIMA-1MET] + CCNC(=O)c1noc(-c2cc(C(C)C)c(O)cc2O)c1-c1ccc(CN2CCOCC2)cc1 [Luminespib] (partner 0.01 µM), the relative viability came out at 1.19.

The molecule `COCC1(CO)C(=O)C2CCN1CC2` (stereo not given) [PRIMA-1MET] + CC(=O)c1c(C)c2cnc(Nc3ccc(N4CCNCC4)cn3)nc2n(C2CCCC2)c1=O [Palbociclib] (partner 0.5 µM) yielded a relative viability of 0.317.

For `COCC1(CO)C(=O)C2CCN1CC2` (stereo not given) [PRIMA-1MET] + Cc1nc(Nc2ncc(C(=O)Nc3c(C)cccc3Cl)s2)cc(N2CCN(CCO)CC2)n1 [Dasatinib] (partner 0.075 µM), the relative viability worked out at 0.565.

Still in this assay, the particulars now being: first compound 0.6325 µM.
As to `COCC1(CO)C(=O)C2CCN1CC2` (stereo not given) [PRIMA-1MET] + CC(=O)c1c(C)c2cnc(Nc3ccc(N4CCNCC4)cn3)nc2n(C2CCCC2)c1=O [Palbociclib] (partner 0.5 µM), the relative viability was found to be 0.289.

Source of the values: the supplement of paper PMC10307832.
